Test results taken from patent US20240343707A1, “SUBSTITUTED PHENYL ETHYNYL PYRIMIDINES AS POTENT INHIBITORS OF ALPHAVIRUSES” (Southern Research Institute, priority 2023, published 2024).

What was measured:
Type in all cases: cell-based
in vitro = settings: human
CHIKV [1] = assay: CHIKV virus titer reduction (VTR) assay in NHDF cells; settings: Chikungunya virus; for EC90: read-out: CHIKV EC90 (μM); for log reduction at 10 µM: read-out: CHIKV VTR (logs)
CHIKV [2] = assay: microbe, parasite or virus in culture; settings: Chikungunya virus, read-out: CHIK EC50 (μM)
VEEV = assay: microbe, parasite or virus in culture; settings: Venezuelan equine encephalitis virus, NHDF; for EC90: read-out: VEEV EC90 (μM); for log reduction at 10 µM: read-out: VEEV VTR (logs)
VEEV (TC-83) = assay: microbe, parasite or virus in culture; settings: Venezuelan equine encephalitis virus, read-out: VEEV EC50 (μM)

| Structure (SMILES) | CC50 (in vitro) [nM] | EC90 (CHIKV [1]) [µM] | log reduction at 10 µM (CHIKV [1]) | EC50 (CHIKV [2]) [µM] | EC90 (VEEV) [µM] | log reduction at 10 µM (VEEV) | EC50 (VEEV (TC-83)) [µM] |
| --- | --- | --- | --- | --- | --- | --- | --- |
| O=C1CC(Cc2ccc(NC(=O)c3cccc(C#Cc4ncccn4)c3)cc2)C(=O)N1 (stereo not shown) [Compound 13, N-[4-[(2,5-dioxopyrrolidin-3-yl)methyl]phenyl]-3-(2-pyrimidin-2-ylethynyl)benzamide] | > 40000 | 0.16 | 2.76 | 2.8 | 2.53 | 2.45 | 7.19 |
| O=C(Nc1ccc(N2CCCCC2=O)cc1)c1cccc(C#Cc2ncccn2)c1 [Compound 24, N-[4-(2-oxo-1-piperidyl)phenyl]-3-(2-pyrimidin-2-ylethynyl)benzamide] | – | 0.63 | 4.18 | – | 2.44 | 4.6 | – |
| O=C1CCc2ccc(NC(=O)c3cccc(C#Cc4ncccn4)c3)cc2N1 [Compound 17, N-(2-oxo-3,4-dihydro-1H-quinolin-7-yl)-3-(2-pyrimidin-2-ylethynyl)benzamide] | > 40000 | 0.61 | 6.94 | 0.83 | 0.45 | 6.81 | 2.18 |
| O=C(Nc1ccc2c(c1)CCCCC2)c1cccc(C#Cc2ncccn2)c1 [Compound 8, 3-(2-pyrimidin-2-ylethynyl)-N-(6,7,8,9-tetrahydro-5H-benzo[7]annulen-3-yl)benzamide] | 6970 | 0.43 | 6.89 | 0.71 | 2.43 | 7.97 | > 40 |
| O=C(Nc1cccc(C#Cc2ncccn2)c1)C12CC3CC(CC(C3)C1)C2 [Compound 11, N-[3-(2-pyrimidin-2-ylethynyl)phenyl]adamantane-1-carboxamide] | > 40000 | 20.3 | 0.3 | > 40 | 20.1 | 1.02 | > 40 |
| CC(C)(C)c1ccc(NC(=O)c2cccc(C#Cc3ncccn3)c2)cc1 [Compound 19, N-(4-tert-butylphenyl)-3-(2-pyrimidin-2-ylethynyl)benzamide] | 5080 | 0.2 | 7.59 | 1.04 | 0.3 | 8.26 | 0.93 |
| O=C1CCc2cc(NC(=O)c3cc(C#Cc4ncccn4)cc(OC(F)(F)F)c3)ccc2N1 [Compound 16, N-(2-oxo-3,4-dihydro-1H-quinolin-6-yl)-3-(2-pyrimidin-2-ylethynyl)-5-(trifluoromethoxy)benzamide] | > 40000 | – | – | 0.19 | – | – | 0.16 |
| O=C(Nc1ccc2c(c1)CCCC2)c1cccc(C#Cc2ncccn2)c1 [Compound 22, 3-(2-pyrimidin-2-ylethynyl)-N-tetralin-6-yl-benzamide] | > 40000 | 0.7 | – | 0.83 | 0.7 | – | 1.26 |
| O=C(Nc1cccc(C#Cc2ncccn2)c1)c1nc2c(s1)CCCC2 [Compound 9, N-[3-(2-pyrimidin-2-ylethynyl)phenyl]-4,5,6,7-tetrahydro-1,3-benzothiazole-2-carboxamide] | 9590 | 3.9 | 1.65 | 5.78 | 7.37 | 2.59 | > 40 |
| O=C(NCc1ccc2c(c1)OC(F)(F)O2)c1cccc(C#Cc2ncccn2)c1 [Compound 7, N-[(2,2-difluoro-1,3-benzodioxol-5-yl)methyl]-3-(2-pyrimidin-2-ylethynyl)benzamide] | > 40000 | – | 4.43 | 4.32 | – | 3.88 | > 40 |
| CC(C)(C#N)c1ccc(NC(=O)c2cccc(C#Cc3ncccn3)c2)cc1 [Compound 20, N-[4-(1-cyano-1-methyl-ethyl)phenyl]-3-(2-pyrimidin-2-ylethynyl)benzamide] | 17800 | 0.07 | 10 | 0.27 | 0.06 | 8.08 | 0.34 |
| O=C1CCCc2cc(NC(=O)c3cccc(C#Cc4ncccn4)c3)ccc2N1 [Compound 2, N-(2-oxo-1,3,4,5-tetrahydro-1-benzazepin-7-yl)-3-(2-pyrimidin-2-ylethynyl)benzamide] | > 40000 | 0.15 | 7.7 | 0.51 | 0.55 | 7.77 | 2.27 |
| O=C1CCc2cc(NC(=O)c3cccc(C#Cc4ncccn4)c3)ccc2N1 [Compound 1, N-(2-oxo-3,4-dihydro-1H-quinolin-6-yl)-3-(2-pyrimidin-2-ylethynyl)benzamide] | > 40000 | 0.18 | 3.15 | 0.23 | 0.11 | 7.85 | 1.6 |
| CCOP(=O)(OCC)c1ccc(NC(=O)c2cccc(C#Cc3ncccn3)c2)cc1 [Compound 6, N-(4-diethoxyphosphorylphenyl)-3-(2-pyrimidin-2-ylethynyl)benzamide] | > 40000 | – | – | 0.44 | – | – | 0.43 |
| O=C1CCc2cc(C(=O)Nc3cccc(C#Cc4ncccn4)c3)ccc2N1 [Compound 5, 2-oxo-N-[3-(2-pyrimidin-2-ylethynyl)phenyl]-3,4-dihydro-1H-quinoline-6-carboxamide] | > 40000 | 1.09 | 2.72 | 3.31 | 1.15 | 6.43 | 3.98 |
| O=C(Nc1ccc(C(F)(F)F)cc1)c1cccc(C#Cc2ncccn2)c1 [Compound 23, 3-(2-pyrimidin-2-ylethynyl)-N-[4-(trifluoromethyl)phenyl]benzamide] | > 40000 | 0.85 | – | 1.2 | 0.82 | – | 0.71 |
| O=C(Nc1cccc(C#Cc2ncccn2)c1)c1cc(C2CC2)[nH]c(=O)c1 [Compound 18, 2-cyclopropyl-6-oxo-N-[3-(2-pyrimidin-2-ylethynyl)phenyl]-1H-pyridine-4-carboxamide] | > 40000 | – | 0.62 | 28.1 | 5.66 | 2.43 | 10.3 |
| COc1cc(C#Cc2ncccn2)cc(C(=O)Nc2ccc3c(c2)CCC(=O)N3C)c1 [Compound 15, 3-methoxy-N-(1-methyl-2-oxo-3,4-dihydroquinolin-6-yl)-5-(2-pyrimidin-2-ylethynyl)benzamide] | 26000 | – | – | 0.2 | – | – | 0.33 |
| O=C1CCc2cc(S(=O)(=O)Nc3cccc(C#Cc4ncccn4)c3)ccc2N1 [Compound 10, 2-oxo-N-[3-(2-pyrimidin-2-ylethynyl)phenyl]-3,4-dihydro-1H-quinoline-6-sulfonamide] | 33200 | 1.13 | 0.08 | > 40 | – | 0.81 | > 40 |
| CN1C(=O)CCc2cc(NC(=O)c3cccc(C#Cc4ncccn4)c3)ccc21 [Compound 3, N-(1-methyl-2-oxo-3,4-dihydroquinolin-6-yl)-3-(2-pyrimidin-2-ylethynyl)benzamide] | 35300 | 0.13 | 8 | 0.3 | 0.33 | 8.58 | 0.77 |
| O=C(Nc1cccc(C#Cc2ncccn2)c1)c1ccc(N2CCCCC2=O)cc1 [Compound 21, 4-(2-oxo-1-piperidyl)-N-[3-(2-pyrimidin-2-ylethynyl)phenyl]benzamide] | > 40000 | – | 1.83 | > 40 | – | 0.72 | 32.2 |
| O=C1Cc2cc(NC(=O)c3cccc(C#Cc4ncccn4)c3)ccc2N1 [Compound 4, N-(2-oxoindolin-5-yl)-3-(2-pyrimidin-2-ylethynyl)benzamide] | > 40000 | 0.095 | 10 | 0.66 | 0.32 | 3.19 | 2.11 |
| O=C(Nc1ccc2c(c1)CCCN2)c1cccc(C#Cc2ncccn2)c1 [Compound 12, 3-(2-pyrimidin-2-ylethynyl)-N-(1,2,3,4-tetrahydroquinolin-6-yl)benzamide] | 38800 | 0.74 | 7.58 | 1.02 | 0.72 | 5.47 | 1.39 |
| COc1cc(C#Cc2ncccn2)cc(C(=O)Nc2ccc3c(c2)CCC(=O)N3)c1 [Compound 14, 3-methoxy-N-(2-oxo-3,4-dihydro-1H-quinolin-6-yl)-5-(2-pyrimidin-2-ylethynyl)benzamide] | > 40000 | – | – | 0.16 | – | – | 0.44 |
